From ChEMBL document CHEMBL1125386, “Small atrial natriuretic peptide analogues: design, synthesis, and structural requirements for guanylate cyclase activation” (J Med Chem, 1992)

Test system: Atrial natriuretic peptide receptor 1 (Oryctolagus cuniculus)
Test: Binding affinity towards the low-affinity site atrionatriuretic peptide receptor 1 of rabbit adrenal membrane

| Structure (SMILES) | KL [nM] |
| --- | --- |
| CC[C@H](C)[C@@H]1NC(=O)[C@H](CCCN=C(N)N)NC(=O)[C@@H](CC(=O)O)NC(=O)[C@H]([C@@H](C)CC)NC(=O)[C@H](CCCNC(N)=O)NC(=O)CNC(=O)CNC(=O)[C@@H](Cc2ccccc2)NC(=O)[C@@H](C)NC(=O)[C@@H](NC(=O)[C@H](CO)NC(=O)[C@@H](N)CO)CSSC[C@@H](C(=O)N[C@H](Cc2ccccc2)C(=O)N[C@H](CCCN=C(N)N)C(=O)O)NC1=O | 6900 |
| CC[C@H](C)[C@@H]1NC(=O)[C@@H](CCCN=C(N)N)NC(=O)CNC(=O)CNC(=O)[C@@H](Cc2ccccc2)NC(=O)CCNC(=O)[C@H](NC(=O)[C@H](CO)NC(=O)[C@@H](N)CO)CSSC[C@H](C(=O)N[C@H](Cc2ccccc2)C(=O)N[C@H](CCCN=C(N)N)C(=O)O)NC(=O)[C@@H]([C@@H](C)CC)NC(=O)[C@H](CCCN=C(N)N)NC(=O)[C@@H](CC(=O)O)NC1=O | 6500 |
| CC[C@H](C)[C@@H]1NC(=O)[C@@H](CCCN=C(N)N)NC(=O)CNC(=O)CNC(=O)[C@@H](Cc2ccccc2)NC(=O)C(C)NC(=O)[C@H](NC(=O)[C@@H](N)CCCN=C(N)N)CSSC[C@H](C(=O)N[C@H](Cc2ccccc2)C(=O)N[C@H](CCCN=C(N)N)C(=O)O)NC(=O)[C@@H]([C@@H](C)CC)NC(=O)[C@H](CCCN=C(N)N)NC(=O)[C@@H](CC(=O)O)NC1=O (stereo in doubt) | 240 |
| CC[C@H](C)[C@@H]1NC(=O)[C@@H](CCCN=C(N)N)NC(=O)CNC(=O)CNC(=O)[C@@H](Cc2ccccc2)NC(=O)C(C)NC(=O)[C@H](NC(=O)CCCCCCCN)CSSC[C@H](C(=O)N[C@H](Cc2ccccc2)C(=O)N[C@H](CCCN=C(N)N)C(=O)O)NC(=O)[C@@H]([C@@H](C)CC)NC(=O)[C@H](CCCN=C(N)N)NC(=O)[C@@H](CC(=O)O)NC1=O (stereo in doubt) | 790 |
| CC[C@H](C)[C@@H]1NC(=O)[C@@H](CCCN=C(N)N)NC(=O)CNC(=O)CNC(=O)[C@H](Cc2ccccc2)NC(=O)[C@H](NC(=O)[C@H](CO)NC(=O)[C@@H](N)CO)CSSC[C@H](C(=O)N[C@H](Cc2ccccc2)C(=O)N[C@H](CCCN=C(N)N)C(=O)O)NC(=O)[C@@H]([C@@H](C)CC)NC(=O)[C@H](CCCN=C(N)N)NC(=O)[C@@H](CC(=O)O)NC1=O | 2000 |
| CC[C@H](C)[C@@H]1NC(=O)[C@@H](CCCN=C(N)N)NC(=O)C2CCC(CC2)NC(=O)C2CCC(CC2)NC(=O)[C@@H](Cc2ccccc2)NC(=O)C(C)NC(=O)[C@H](NC(=O)[C@H](CO)NC(=O)[C@@H](N)CO)CSSC[C@H](C(=O)N[C@H](Cc2ccccc2)C(=O)N[C@H](CCCN=C(N)N)C(=O)O)NC(=O)[C@@H]([C@@H](C)CC)NC(=O)[C@H](CCCN=C(N)N)NC(=O)[C@@H](CC(=O)O)NC1=O (stereo in doubt) | 1000 |
| CC[C@H](C)[C@@H]1NC(=O)[C@@H](CCCN=C(N)N)NC(=O)[C@H](CC(=O)O)NC(=O)[C@@H]([C@@H](C)CC)NC(=O)[C@H](CCCN=C(N)N)NC(=O)CNC(=O)CNC(=O)[C@H](Cc2ccccc2)NC(=O)CN(C)C(=O)[C@@H](NC(=O)[C@@H](CO)NC(=O)[C@H](N)CO)CSSC[C@@H](C(=O)N[C@H](Cc2ccccc2)C(=O)N[C@H](CCCN=C(N)N)C(=O)O)NC1=O | 410 |
| CC[C@H](C)[C@@H]1NC(=O)[C@@H](CCCN=C(N)N)NC(=O)CNC(=O)CNC(=O)[C@@H](Cc2ccccc2)NC(=O)[C@H](NC(=O)[C@@H](CO)NC(=O)[C@H](N)CO)CSSC[C@H](C(=O)O)NC(=O)[C@@H](CCCN=C(N)N)NC(=O)[C@H](Cc2ccccc2)NC(=O)[C@@H]([C@@H](C)CC)NC(=O)[C@H](CCCN=C(N)N)NC(=O)[C@@H](CC(=O)O)NC1=O | 790 |
| CC[C@H](C)[C@@H]1NC(=O)[C@@H](CCCN=C(N)N)NC(=O)CNC(=O)CNC(=O)[C@@H](Cc2ccccc2)NC(=O)[C@H](C2CCCCC2)NC(=O)[C@H](NC(=O)[C@H](CO)NC(=O)[C@@H](N)CO)CSSC[C@H](C(=O)N[C@H](Cc2ccccc2)C(=O)N[C@H](CCCN=C(N)N)C(=O)O)NC(=O)[C@@H]([C@@H](C)CC)NC(=O)[C@H](CCCN=C(N)N)NC(=O)[C@@H](CC(=O)O)NC1=O | 180 |
| CC[C@H](C)[C@@H]1NC(=O)[C@@H](CCCN=C(N)N)NC(=O)CNC(=O)CNC(=O)[C@@H](Cc2ccccc2)NC(=O)[C@@H](C)NC(=O)[C@H](NC(=O)[C@H](CO)NC(=O)[C@@H](N)CO)CSSC[C@H](C(=O)N[C@H](Cc2ccccc2)C(=O)N[C@H](CCCN=C(N)N)C(=O)O)NC(=O)[C@@H]([C@@H](C)CC)NC(=O)[C@H](C)NC(=O)[C@@H](CC(=O)O)NC1=O | 7100 |
| CC[C@H](C)[C@@H]1NC(=O)[C@@H](CCCN=C(N)N)NC(=O)CNC(=O)CNC(=O)[C@@H](Cc2ccccc2)NC(=O)CNC(=O)[C@H](NC(=O)[C@H](CO)NC(=O)[C@@H](N)CO)CSSC[C@H](C(=O)N[C@H](Cc2ccccc2)C(=O)N[C@H](CCCN=C(N)N)C(=O)O)NC(=O)[C@@H]([C@@H](C)CC)NC(=O)[C@H](CCCN=C(N)N)NC(=O)[C@@H](CC(=O)O)NC1=O | 410 |
| CC[C@H](C)[C@@H]1NC(=O)[C@@H](CCCN=C(N)N)NC(=O)CNC(=O)CNC(=O)[C@@H](Cc2ccccc2)NC(=O)CNC(=O)[C@H](NC(=O)[C@H](CO)NC(=O)[C@@H](N)CO)CSSC[C@H](C(=O)N2CCC[C@@H]2C(=O)N[C@H](CCCN=C(N)N)C(=O)O)NC(=O)[C@@H]([C@@H](C)CC)NC(=O)[C@H](CCCN=C(N)N)NC(=O)[C@@H](CC(=O)O)NC1=O | 440 |
| CC[C@H](C)[C@@H]1NC(=O)[C@@H](CCCN=C(N)N)NC(=O)CNC(=O)CNC(=O)[C@@H](Cc2ccccc2)NC(=O)C(C)NC(=O)[C@H](NC(=O)[C@@H](N)CCCCN)CSSC[C@H](C(=O)N[C@H](Cc2ccccc2)C(=O)N[C@H](CCCN=C(N)N)C(=O)O)NC(=O)[C@@H]([C@@H](C)CC)NC(=O)[C@H](CCCN=C(N)N)NC(=O)[C@@H](CC(=O)O)NC1=O (stereo in doubt) | 390 |
| CC[C@H](C)[C@@H]1NC(=O)[C@@H](CCCN=C(N)N)NC(=O)CNC(=O)CNC(=O)[C@@H](Cc2ccccc2)NC(=O)[C@H](NC(=O)[C@H](CO)NC(=O)[C@@H](N)CO)CSSC[C@H](C(=O)N[C@H](Cc2ccccc2)C(=O)N[C@H](CCCN=C(N)N)C(=O)O)NC(=O)[C@@H]([C@@H](C)CC)NC(=O)[C@H](CCCN=C(N)N)NC(=O)[C@@H](CC(=O)O)NC1=O | 4400 |

Next, values leading:

| KL [nM] | Structure (SMILES) |
| --- | --- |
| 150 | CC[C@H](C)[C@@H]1NC(=O)[C@@H](CCCCN)NC(=O)CNC(=O)CNC(=O)[C@@H](C2CCCCC2)NC(=O)CCSSC[C@H](C(N)=O)NC(=O)[C@@H](CCCN=C(N)N)NC(=O)[C@H](Cc2ccccc2)NC(=O)[C@@H]([C@@H](C)CC)NC(=O)[C@H](CCCN=C(N)N)NC(=O)[C@@H](CC(=O)O)NC1=O |
| 280 | CC[C@H](C)[C@@H]1NC(=O)[C@@H](CCCN=C(N)N)NC(=O)CNC(=O)CNC(=O)[C@@H](C2CCCCC2)NC(=O)[C@H](NC(=O)[C@H](N)CCCN=C(N)N)CSSC[C@H](C(=O)O)NC(=O)[C@@H](CCCN=C(N)N)NC(=O)[C@H](C)NC(=O)[C@@H]([C@@H](C)CC)NC(=O)[C@H](CCCN=C(N)N)NC(=O)[C@@H](CC(=O)O)NC1=O |
| 8900 | CC[C@H](C)[C@@H]1NC(=O)[C@@H](CCCN=C(N)N)NC(=O)CNC(=O)CNC(=O)[C@@H](C2CCCCC2)NC(=O)[C@H](N)CSSC[C@H](C(N)=O)NC(=O)[C@@H](CCCN=C(N)N)NC(=O)[C@H](Cc2ccccc2)NC(=O)[C@@H]([C@@H](C)CC)NC(=O)[C@H](C)NC(=O)[C@@H](CC(=O)O)NC1=O |
| 430 | CC[C@H](C)[C@@H]1NC(=O)[C@@H](CCCN=C(N)N)NC(=O)CNC(=O)CNC(=O)[C@@H](C2CCCCC2)NC(=O)CCSSC[C@H](C(N)=O)NC(=O)[C@@H](CCCN=C(N)N)NC(=O)[C@H](Cc2ccccc2)NC(=O)[C@@H]([C@@H](C)CC)NC(=O)[C@H](CCCN=C(N)N)NC(=O)[C@@H](CCC(=O)O)NC1=O |
| 1700 | CC[C@H](C)[C@@H]1NC(=O)[C@@H](CCCN=C(N)N)NC(=O)CNC(=O)CNC(=O)[C@@H](Cc2cc(I)c(O)c(I)c2)NC(=O)[C@H](NC(=O)[C@H](N)CCCN=C(N)N)CSSC[C@H](C(N)=O)NC(=O)[C@@H](CCCN=C(N)N)NC(=O)[C@H](Cc2ccccc2)NC(=O)[C@@H]([C@@H](C)CC)NC(=O)[C@H](CCCN=C(N)N)NC(=O)[C@@H](CC(=O)O)NC1=O |
| 540 | CC[C@H](C)[C@@H]1NC(=O)[C@H](CCCN=C(N)N)NC(=O)[C@@H](CC(=O)O)NC(=O)[C@H]([C@@H](C)CC)NC(=O)[C@@H](CCCN=C(N)N)NC(=O)CNC(=O)CNC(=O)[C@@H](Cc2ccccc2)NC(=O)C(C)NC(=O)[C@@H](NC(=O)[C@H](CO)NC(=O)[C@@H](N)CO)CSSC[C@@H](C(=O)N2C[C@@H](C(=O)N[C@H](CCCN=C(N)N)C(=O)O)Cc3ccccc32)NC1=O (stereo in doubt) |
| 960 | CC[C@H](C)[C@@H]1NC(=O)[C@@H](CCCN=C(N)N)NC(=O)CNC(=O)CNC(=O)[C@@H](Cc2ccccc2)NC(=O)C(C)NC(=O)[C@H](NC(=O)[C@H](CO)NC(=O)[C@@H](N)CO)CSSC[C@H](C(=O)N2CC(C(=O)N[C@H](CCCN=C(N)N)C(=O)O)Cc3ccccc32)NC(=O)[C@@H]([C@@H](C)CC)NC(=O)[C@H](CCCN=C(N)N)NC(=O)[C@@H](CC(=O)O)NC1=O (stereo in doubt) |
| 2700 | CC[C@H](C)[C@@H]1NC(=O)[C@@H](CCCN=C(N)N)NC(=O)CNC(=O)CNC(=O)[C@@H](Cc2ccccc2)NC(=O)C(C)NC(=O)[C@H](N)CSSC[C@H](C(=O)N[C@H](Cc2ccccc2)C(=O)N[C@H](CCCN=C(N)N)C(=O)O)NC(=O)[C@@H]([C@@H](C)CC)NC(=O)[C@H](CCCN=C(N)N)NC(=O)[C@@H](CC(=O)O)NC1=O (stereo in doubt) |
| 460 | CC[C@H](C)[C@@H]1NC(=O)[C@@H](CCCN=C(N)N)NC(=O)CNC(=O)CNC(=O)[C@@H](C2CCCCC2)NC(=O)[C@H](NC(=O)[C@H](N)CCCN=C(N)N)CSSC[C@H](C(=O)O)NC(=O)[C@@H](CCCN=C(N)N)NC(=O)[C@H](Cc2ccccc2)NC(=O)[C@@H]([C@@H](C)CC)NC(=O)[C@H](CCCN=C(N)N)NC(=O)[C@@H](CC(=O)O)NC1=O |
| 280 | CC[C@H](C)[C@@H]1NC(=O)[C@@H](CCCN=C(N)N)NC(=O)CNC(=O)CNC(=O)[C@@H](Cc2ccccc2)NC(=O)C(C)NC(=O)[C@H](NC(=O)CCCCN)CSSC[C@H](C(=O)N[C@H](Cc2ccccc2)C(=O)N[C@H](CCCN=C(N)N)C(=O)O)NC(=O)[C@@H]([C@@H](C)CC)NC(=O)[C@H](CCCN=C(N)N)NC(=O)[C@@H](CC(=O)O)NC1=O (stereo in doubt) |
